The values that follow come from patent US20160030498A1, “HERBAL COMPOSITIONS FOR TREATING PAIN AND SKIN DISORDERS” (RUPAK ENTERPRISES (P) LIMITED, priority 2013, published 2016).

In general, pIC50 refers to −log10 of the IC50, conventionally taken in molar units. High values mean a small IC50, low ones a large IC50.

pIC50: −log10 of the molar value.

For one assay, the system named is LOX. Kind of assay: LOX inhibition assay. The class given is biochemical.
Assay [1] deals with proliferative dermatological disorders. Description: Use in human subjects suffering from dermatological disorders. The class given is in vivo. The conditions noted are these: humans. The source says: Another embodiment of the present invention refers to method of use of a composition comprising of Acetyl-11-keto-beta-boswellic acid (BOSWELLIC ACID) and Bakuchiol for alleviation and management of skin rashes, itching, and boils resulting from skin proliferative disorders, specifically psoriasis, atopic dermatitis. For example, the method of use disclosed herein may be administered alongside steroidal therapy during the steroid dose tapering phase, followed by standalone administration of the combination provides complete remission of skin conditions, and is maintained that upon continuance of recommended dosage. In certain embodiments the skin disorder may be resulting from irritants, allergens, trigger, or autoimmune reasons, and the combination defined herein is effective in all of the above. The present invention includes the formulation of a Bakuchiol and BOSWELLIC ACID combination in an oral dosage form or, lotion, cream, ointment which can be applied topically.

In the case of `C=C[C@@](C)(/C=C/c1ccc(O)cc1)CCC=C(C)C` [Bakuchiol], in the assay with LOX, the pIC50 is 5.51. Turning to 3-o-Acetyl-11-keto-beta-boswellic acid, the “Remission of proliferative dermatological conditions” value in assay [1] is listed as “substantial remission”.
